# Assay results taken from patent US12570661B2, “Isoform-specific aldehyde dehydrogenase inhibitors” (The Board of Trustees of the Leland Stanford Junior …, priority 2020, dated 2026).
# pIC50: −log10 of the molar value. Entries after “also recorded” stand apart in the source; their conditions may differ. Read-outs that look alike come from different tables or passages of the source.
# Columns and labels:
# ALDH1B1 [1] = target: T1, ALDH1B1 (Homo sapiens, UniProt P30837); assay: ALDEFLUOR assay of cellular ALDH1B1 activity in ALDH1B1-transfected ALDH1A3−/− A375 cells; type: cell-based; details: for effect on ALDH1B1-dependent ALDEFLUOR signal (cellular ALDH1B1 activity): flow cytometry
# T1 sequence (P30837 18-517): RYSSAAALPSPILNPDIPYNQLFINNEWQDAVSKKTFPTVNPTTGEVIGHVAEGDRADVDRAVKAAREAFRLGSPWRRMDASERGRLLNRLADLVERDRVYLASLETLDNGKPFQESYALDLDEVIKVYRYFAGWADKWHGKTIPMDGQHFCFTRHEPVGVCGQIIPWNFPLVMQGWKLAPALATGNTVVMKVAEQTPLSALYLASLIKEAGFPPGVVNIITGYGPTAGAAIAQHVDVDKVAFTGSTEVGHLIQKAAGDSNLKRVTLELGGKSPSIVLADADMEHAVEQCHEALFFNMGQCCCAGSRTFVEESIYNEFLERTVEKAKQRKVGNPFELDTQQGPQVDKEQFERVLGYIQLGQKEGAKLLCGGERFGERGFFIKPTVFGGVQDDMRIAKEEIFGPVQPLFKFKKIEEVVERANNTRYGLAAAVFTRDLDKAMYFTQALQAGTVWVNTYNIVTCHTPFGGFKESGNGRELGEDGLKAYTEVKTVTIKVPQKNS
# Experimental: ALDH1A3^−/− A375 cells were seeded into a 6-well plate at a density of 5×10^5 cells/well and cultured for 24 h. The cells were then transfected with either pCMV6-entry, pCMV6-GFP (Addgene, plasmid 11153), or pCMV-ALDH1B1. After 24 h, the media was replaced and transfection efficiencies were estimated by the EGFP-positive cells in the pCMV-GFP-transfected well. The cells were cultured for another 24 h and their ALDH activities were quantified using the ALDEFLUOR assay. Briefly, the cells were isolated from the plate with trypsin and resuspended in ALDEFLUOR assay buffer (STEMCELL Technologies) at a concentration of 4×10^5 cells/mL. Each ALDEFLUOR assay used 0.5 mL of this cell suspension, and the cells were treated with individual compounds for 15 min at 37° C. and 5% CO2. The cell suspensions were then treated with 2.5 μL ALDEFLUOR reagent and incubated for an additional 30 min at 37° C. and 5% CO2. The cells were then collected by centrifugation (450×g) for 5 min at room temperature, resuspended in 200 μL assay buffer, and analyzed with an LSR II flow cytometer (BD Biosciences) at the Stanford FACS facility.
# SW480 cells (spheroid) = assay: Matrigel spheroid growth / viability assay, SW480; type: cell-based; details: for GI50: Matrigel spheroid culture, 7 days, read-out: Spheroid SW480 GI50
# Experimental: To prepare Matrigel-coated culture plates, 96-well and 24-well plates were placed on ice and coated with 25 μL or 300 μL, respectively, of Matrigel matrix (Corning, LDEV-free) that had been thawed overnight at 4° C. The plates were then placed in a 37° C. incubator for 30 min to allow the Matrigel to solidify. SW480 or HCT116 cells were suspended in spheroid culture medium (RPMI-1640 containing 20 ng/mL recombinant human epidermal growth factor (Abcam, ab9697), 20 ng/mL recombinant human fibroblast growth factor (BioVision, 4037), 5 μg/mL heparin (Sigma), 1× N-2 supplement (Thermo Fisher Scientific), 100 U/mL penicillin, and 100 μg/mL streptomycin) and then seeded into the 96-well and 24-well Matrigel-coated plates at densities of 1,000 or 5,000 cells/well and total well volumes of […] or 1 mL, respectively. Compounds were diluted in spheroid culture medium and added to the wells, and the spheroid were grown at 37° C. with 5% CO2 for 7 days.
# To quantify spheroid growth at the 7-day endpoint, unstained spheroids were imaged with phase-contrast illumination using a Keyence BZ-X710 microscope. Some cultures were also stained with crystal violet to enable brightfield imaging. Briefly, the Matrigel spheroids cultures were treated with PBS containing 0.5% crystal violet and 5% methanol for 15 min at 37° C. and then gently washed 4×5 min with PBS. Spheroid sizes were quantified with ImageJ (Fiji) software using masks created with the default “Threshold” function and foreground/background adjustments to optimize masking fidelity. The full field of view was then selected for “Analyze Particles” analysis, providing numbered list of each spheroid and its area in the micrograph. In the few cases that two adjacent spheroids were treated as one object by the image processing software, their measurements were manually corrected using the “Freehand Selections” tool. To exclude background and debris from dead cells, spheroids with areas less than 500 μm^2 were excluded from the image analyses.
# (§1) SW480 or HCT116 cells were seeded into regular or Matrigel-coated 96-well plates at a density of 1000 cells/well. The cells were cultured in the corresponding adherent or spheroid culture medium (200 μL/well) containing the designated compounds or an equivalent amount of DMSO vehicle. Each culture was maintained for 7 days, and then cell viabilities were measured using a CellTiter-Glo 3D Cell Viability Assay kit (Promega). Briefly, 100 μL of the culture medium was removed from each well and replaced with 100 μL 3D Cell Assay reagent. The cells in each well were next homogenized by vigorous pipetting, and the plate was incubated for 10 min at room temperature to stabilize the chemiluminescent signal. A 150-μL aliquot from each well was then transferred into a white opaque 96-well assay plate (flat-bottom and non-treated; Corning Costar) and luminescence intensities were measured with a Veritas microplate luminometer (Turner BioSystems).
# SW480 cells (adherent) = assay: Cell viability assay, adherent SW480 cultures; type: cell-based, human; details: adherent culture, 7 days
# Experimental: as §1
# ALDH1B1 [2] = target: T1, ALDH1B1; assay: ALDH1B1 enzyme kinetics assay (NADH fluorescence, acetaldehyde substrate); type: biochemical; set-up: made in house; host or cells: E. coli BL21 (optionally co-expressed with GroEL/GroES); details: for pIC50: 1 μg/mL enzyme, 1 mM acetaldehyde, 1 mM NAD+, read-out: ALDH1B1(in vitro) IC50; for ALDH1B1 inhibition / isoform selectivity (in words): enzyme kinetics assays against ALDH isoforms
# Experimental: Cloning, expression, and purification of human recombinant ALDH1A1, ALDH1A3, ALDH2, ALDH3A1, ALDH3A2, ALDH4A1, ALDH5A1 and ALDH7A1 isozymes were conducted as described previously (Chen, C. H. et al. (2015) Proc. Natl. Acad. Sci. U.S.A. 112, 3074-3079). Human ALDH1A2 (Origene, SC109995) and ALDH1B1 (T. Hurley, Indiana University) plasmids were cloned into the pET-15b expression vector (Novagen, 69661-3) containing an N-terminal hexahistidine tag. The mitochondria-targeting sequence of ALDH1B1 was also removed. For protein expression without chaperones, the pET-15b based plasmids were transformed into competent BL21 E. coli cells, which were subsequently grown in 1 L of Luria-Bertani medium containing 100 μg/mL ampicillin at 37° C. Once the OD600 value reached 0.6, the culture was transferred to 16° C. and 0.5 mM isopropyl β-d-1-thiogalactopyranoside was introduced to induce protein expression overnight. The bacteria were then pelleted by centrifugation (3000×g, 4° C. for 30 rain) and harvested. 40 mL BugBuster Master Mix buffer (MilliporeSigrna) containing a protease inhibitor cocktail (cOmplete; Roche) was added, and the cells were lysed by mechanically rolling the suspension at room temperature for 25 min. The lysate was centrifuged (16000×g, 4° C. for 30 min), and the soluble fraction was collected and mixed with 2 mL of Ni-NTA Superflow resin (Qiagen). After the mixture was avowed to rock at 4° C. for 1 h, it was used to create a 10-mL gravity column, which was sequentially treated with 40 mL of wash buffer 1 (20 mM sodium phosphate, 500 mM NaCl, 1 mM DTT, 20 mM imidazole, 5% glycerol, pH 7.4) and 25 mL of wash buffer 2 (20 mM sodium phosphate, 500 mM NaCl, 1 mM DTT, 40 mM imidazole, 5% glycerol, pH 7.4). The hexahistidine-tagged protein was then recovered by treated the column with 5 mL elution buffer (20 mM sodium phosphate, 500 mM NaCl, 1 mM DTT, 400 mM imidazole, 5% glycerol, pH 7.4) and collecting 500-μL fractions. The protein concentration for each fraction was measured (500 μL elution volume was collected as one fraction and was immediately mixed with 500 μL glycerol. The protein concentration for each fraction was measured (600 nm Protein Assay Reagent; Thermo Fisher Scientific), and protein-containing fractions were diluted with an equal volume of glycerol and stored at −80° C. Samples from each step were also collected for SDS-PAGE gel analysis. For ALDH1B1 protein co-expression with chaperones, pET-15b-ALDH1B1 and GroEL/GroES (Addgene, plasmid pBB541) plasmids were co-transformed into competent BL21 E. coli cells, which were subsequently grown in 1 L of Luria-Bertani medium containing 100 μg/mL ampicillin and 50 μg/mL spectinomycin at 37° C. The hexahistidine-tagged ALDH1B1 protein was then expressed and purified as described above.
# To evaluate compound activities against ALDH isoforms, reaction mixtures consisting of enzyme assay buffer (100 mM sodium phosphate, 1 mM MgCl2, pH 8.0) and 0.1% DMSO, 1 mM β-mercaptoethanol, 1 mM NAD^+, and the bacterially expressed protein were prepared in white opaque 96-well assay plates (100 μL/well, flat-bottom and non-treated; Corning Costar). 5 μg/mL ALDH enzyme was used for single-dose (1, 10, 50 μM) compound test, and 1 μg/mL ALDH enzyme was used for IC50s determination. Acetaldehyde was then added to each well to achieve an initial substrate concentration of 1 mM, and the resulting enzymatic activity was measured based on NADH fluorescence. The fluorescence signal was read over the course of 10 min on a SpectraMax M2e microplate reader (340-nm excitation and 460-nm emission; Molecular Devices) operated by SoftMax Pro software. Compound activities were normalized to a DMSO control, and dose-response inhibition curves were fitted with four-parameter non-linear regression using Prism software. […]
# [3] = HEK-293T cytotoxicity (cell viability) assay; type: cell-based; details: human, HEK-293T cells; adherent HEK-293T, 4-5 days, CellTiter-Glo; read-out: HEK293T GI50
# Experimental: HEK-293T cells were seeded into a 96-well plate at a density of 5×10^3 cells/well and treated with varying concentrations of selected compounds or an equivalent amount of DMSO vehicle. The cells were cultured for 4-5 days without a media change, and after the DMSO-treated cells approached 100% confluence, the cell viabilities were measured using a CellTiter-Glo 3D Cell Viability Assay kit (Promega) and a Veritas microplate luminometer (Turner BioSystems) as described above.
smiles,measurement,setting,value
COc1ccccc1-c1ccc(C2=CN(c3ccccc3OC)C3=NCCCCN23)cc1 [Compound 72],effect on ALDH1B1-dependent ALDEFLUOR signal (cellular ALDH1B1 activity),ALDH1B1 [1],inhibit cellular ALDH1B1 activity
same,efficacy on SW480 spheroid growth in combination with 5-FU,SW480 cells (spheroid); combination with 5-FU,closely matched the product of their individual activities
"CCN(CC)c1ccc(C=O)cc1 [DEAB, N-diethylaminobenzaldehyde, reference compound]",effect on ALDH1B1-dependent ALDEFLUOR signal (cellular ALDH1B1 activity),ALDH1B1 [1],inhibited; also recorded: abrogated
CCOc1ccc(C2=CN(c3ccc(-c4ccccc4OC)cc3)C3=NCCCCN23)c(OC)c1 [Guanidine 64],GI50,"SW480 cells (adherent); Homo sapiens, SW480, 168 h",1300 nM
same,GI50,"SW480 cells (spheroid); Homo sapiens, SW480, 168 h",1100 nM
same,pIC50,ALDH1B1 [2],7.00
CCOc1ccc(C2=CN(c3ccc(-c4ccccc4OC)cc3)C3=NCCCN23)c(OC)c1 [Guanidine 65],GI50,"SW480 cells (adherent); Homo sapiens, SW480, 168 h",2900 nM
same,GI50,"SW480 cells (spheroid); Homo sapiens, SW480, 168 h",1600 nM
same,pIC50,ALDH1B1 [2],6.89
COc1ccccc1C1=CN(c2ccc(-c3ccccc3)cc2)C2=NCCCN12 [Guanidine 66],effect on ALDH1B1-dependent ALDEFLUOR signal (cellular ALDH1B1 activity),ALDH1B1 [1],inhibits cellular ALDH1B1 activity
same,ALDH1B1 inhibition / isoform selectivity (in words),ALDH1B1 [2],ALDH1B1-selective inhibitors
Br.COc1ccccc1C1=CN(c2ccc(-c3ccccc3)cc2)C2=NCCCCN12 [Guanidine 68],ALDH1B1 inhibition / isoform selectivity (in words),ALDH1B1 [2],ALDH1B1-selective inhibitors
COc1ccccc1N1C=C(c2ccc(-c3ccccc3)cc2)N2CC(C)(C)CN=C21 [HPI-279],pIC50,"ALDH1B1 [1]; ALDEFLUOR, ALDH1B1-overexpressing ALDH1A3−/− A375 cells, read-out: ALDH1B1(in cellulo) IC50",6.96
same,pIC50,ALDH1B1 [2],7.09
COc1ccccc1-n1cc(-c2ccc(-c3ccncc3)cc2)[n+]2c1CCCCC2.[Br-] [Imidazolium 13],potency against ALDH1B1 relative to imidazolium 2 (and 8),"ALDH1B1 [2]; dose-response, FIG. 15 panel d",approximately 2 fold
same,ALDH1B1 inhibition / isoform selectivity (in words),ALDH1B1 [2],ALDH1B1-specific inhibitors; also recorded: enhanced specificity for ALDH1B1 in comparison to imidazolium 2
COc1ccccc1C1=CN(c2ccc(-c3ccccc3)cc2)C2=NCCCN12 [STL5-T-0001],GI50,SW480 cells (adherent),1900 nM
same,GI50,SW480 cells (spheroid),1500 nM
same,pIC50,ALDH1B1 [2],7.01
COc1cc(Cl)ccc1C1=CN(c2ccc(-c3ccccc3)cc2)C2=NCCCCN12 [STL5-T-0025],GI50,[3],5200 nM
same,pIC50,ALDH1B1 [2],7.38
CCc1ccccc1C1=CN(c2ccc(-c3ccccc3)cc2)C2=NCCCCN12 [STL5-T-0027],GI50,[3],4300 nM
same,pIC50,ALDH1B1 [2],7.36
COc1cc(Cl)ccc1C1=CN(c2ccc(-c3ccccc3OC)cc2)C2=NCCCN12 [STL5-T-0057],GI50,[3],1700 nM
same,GI50,"SW480 cells (adherent); Homo sapiens, SW480, 168 h",2700 nM
same,GI50,"SW480 cells (spheroid); Homo sapiens, SW480, 168 h",440 nM
same,pIC50,ALDH1B1 [2],7.52
CCc1cc(Cl)ccc1C1=CN(c2ccc(-c3ccccc3)cc2)C2=NCCCN12 [STL8-T-0002],GI50,[3],1500 nM
same,pIC50,ALDH1B1 [2],7.28
CCc1cc(Cl)ccc1C1=CN(c2ccc(-c3ccccc3CC)cc2)C2=NCCCN12 [STL8-T-0003],GI50,[3],1300 nM
same,pIC50,ALDH1B1 [2],7.13
